How the values were obtained:
[1] = molecular target: human JAK3 (aa 795-1124) (Homo sapiens, UniProt P52333); test: In vitro JAK kinase assay (TR-FRET), JAK3
Method: (§1) The enzymatic activity was assayed using as substrate a biotinylated peptide, poly (GT)-Biotin (CisBio). […] The degree of phosphorylation was detected by TR-FRET (time-resolved fluorescence energy transfer). […] The enzymatic reactions took place for 30 minutes at room temperature. […] Incubate for 3 h and read on Victor 2V spectrofluorometer (PerkinElmer) set to read fluorescence resonance energy transfer.

[2] = molecular target: human JAK2 (aa 826-1132) (Homo sapiens, UniProt O60674); test: In vitro JAK kinase assay (TR-FRET), JAK2
Method: as §1

[3] = molecular target: human JAK1 (aa 850-1154) (Homo sapiens, UniProt P23458); test: In vitro JAK kinase assay (TR-FRET), JAK1
Chain of human JAK1 (aa 850-1154) (P23458 850-1154): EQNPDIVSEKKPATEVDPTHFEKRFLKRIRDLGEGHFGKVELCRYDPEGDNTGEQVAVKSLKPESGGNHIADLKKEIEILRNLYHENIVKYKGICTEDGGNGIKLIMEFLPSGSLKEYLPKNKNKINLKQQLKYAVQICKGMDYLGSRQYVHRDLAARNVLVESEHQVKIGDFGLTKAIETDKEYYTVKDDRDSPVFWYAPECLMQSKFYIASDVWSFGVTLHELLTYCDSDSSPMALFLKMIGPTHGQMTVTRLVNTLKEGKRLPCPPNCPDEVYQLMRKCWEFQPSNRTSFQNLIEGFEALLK
Method: as §1

Chain of human JAK2 (aa 826-1132) (O60674 826-1132): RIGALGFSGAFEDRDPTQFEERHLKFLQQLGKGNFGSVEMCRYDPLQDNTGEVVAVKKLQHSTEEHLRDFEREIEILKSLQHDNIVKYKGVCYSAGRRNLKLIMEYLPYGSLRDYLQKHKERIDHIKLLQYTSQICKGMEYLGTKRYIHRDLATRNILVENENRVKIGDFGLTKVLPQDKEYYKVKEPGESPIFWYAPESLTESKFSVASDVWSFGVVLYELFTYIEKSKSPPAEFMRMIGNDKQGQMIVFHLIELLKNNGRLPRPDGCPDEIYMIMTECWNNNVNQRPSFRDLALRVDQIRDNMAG
Chain of human JAK3 (aa 795-1124) (P52333 795-1124): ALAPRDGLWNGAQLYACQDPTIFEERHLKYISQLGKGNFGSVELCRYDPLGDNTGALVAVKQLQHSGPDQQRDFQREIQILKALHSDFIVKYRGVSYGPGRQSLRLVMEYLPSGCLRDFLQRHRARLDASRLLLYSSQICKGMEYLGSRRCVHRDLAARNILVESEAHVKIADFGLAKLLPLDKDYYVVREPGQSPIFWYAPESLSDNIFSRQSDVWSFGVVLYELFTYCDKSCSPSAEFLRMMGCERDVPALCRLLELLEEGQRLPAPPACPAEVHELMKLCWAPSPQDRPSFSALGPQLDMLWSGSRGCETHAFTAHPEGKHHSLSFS

Structure (SMILES)	IC50 [1] [nM]	IC50 [2] [nM]	IC50 [3] [nM]
N#CC1(n2c(=O)[nH]c3cnc(-c4cnc5ccc(F)cn45)nc32)CCCCC1 [Example 36, 1-(2-(6-Fluoroimidazo[1,2-a]pyridin-3-yl)-8-oxo-7H-purin-9(8H)-yl)cyclohexane carbonitrile]	100 to 1000	< 100	> 1000
O=c1[nH]c2cnc(-c3cnc4ccc(F)cn34)nc2n1[C@H](CO)c1ccc(F)cn1 [Example 35, (S)-2-(6-Fluoroimidazo[1,2-a]pyridin-3-yl)-9-(1-(5-fluoropyridin-2-yl)-2-hydroxyethyl)-7H-purin-8(9H)-one]	100 to 1000	< 100	100 to 1000
CC1(C)CC(n2c(=O)[nH]c3cnc(-c4cnc5ccc(F)cn45)nc32)c2cccnc2O1 (stereo not shown) [Example 42, 9-(2,2-Dimethyl-3,4-dihydro-2H-pyrano[2,3-b]pyridin-4-yl)-2-(6-fluoroimidazo[1,2-a]pyridin-3-yl)-7H-purin-8(9H)-one]	100 to 1000	100 to 1000	> 1000
C[C@H](CC(N)=O)n1c(=O)[nH]c2cnc(-c3cnc4ccc(F)cn34)nc21 [Example 58, (R)-3-(2-(6-Fluoroimidazo[1,2-a]pyridin-3-yl)-8-oxo-7H-purin-9(8H)-yl)butanamide]	100 to 1000	100 to 1000	> 1000
CS(=O)(=O)N1CCC[C@@H](n2c(=O)[nH]c3cnc(-c4cnc5ccc(F)cn45)nc32)C1 [Example 62, 2-(6-Fluoroimidazo[1,2-a]pyridin-3-yl)-9-[(3R)-1-(methylsulfonyl)piperidin-3-yl]-7,9-dihydro-8H-purin-8-one]	100 to 1000	< 100	> 1000
O=c1[nH]c2c(N3CCNCC3)nc(-c3cnc4ccc(F)cn34)nc2n1C1CCOCC1 [Example 98, 2-(6-Fluoroimidazo[1,2-a]pyridin-3-yl)-6-(piperazin-1-yl)-9-(tetrahydro-2H-pyran-4-yl)-7H-purin-8(9H)-one]	< 100	< 100	> 1000
O=c1[nH]c2cnc(-c3cnn4cc(F)ccc34)nc2n1C1CCOCC1 [Example 89, 2-(6-Fluoropyrazolo[1,5-a]pyridin-3-yl)-9-(tetrahydro-2H-pyran-4-yl)-7H-purin-8(9H)-one]	< 100	< 100	> 1000
CS(=O)(=O)N1CCC(n2c(=O)[nH]c3ccc(-c4cnc5ccc(F)cn45)nc32)CC1 [Example 71, 5-(6-Fluoroimidazo[1,2-a]pyridin-3-yl)-3-[1-(methylsulfonyl)piperidin-4-yl]-1,3-dihydro-2H-imidazo[4,5-b]pyridin-2-one]	< 100	< 100	> 1000

Continued, values first:

IC50 [1] [nM]	IC50 [2] [nM]	IC50 [3] [nM]	Structure (SMILES)
100 to 1000	< 100	100 to 1000	O=c1[nH]c2cnc(-c3cnn4cccnc34)cc2n1C1CCOCC1 [Example 92, 6-(Pyrazolo[1,5-a]pyrimidin-3-yl)-1-(tetrahydro-2H-pyran-4-yl)-1H-imidazo[4,5-c]pyridin-2(3H)-one]
< 100	< 100	< 100	O=c1[nH]c2cnc(-c3cnn4ccncc34)nc2n1C1CCC(F)(F)CC1 [Example 81, 9-(4,4-Difluorocyclohexyl)-2-(pyrazolo[1,5-a]pyrazin-3-yl)-7H-purin-8(9H)-one]
–	–	100 to 1000	C[C@@H]1CCCC[C@@H]1n1c(=O)[nH]c2cnc(-c3cnc4ccc(C#N)cn34)nc21 [Example 3, 3-(9-((1S,2R)-2-Methylcyclohexyl)-8-oxo-8,9-dihydro-7H-purin-2-yl)imidazo[1,2-a]pyridine-6-carbonitrile]
< 100	< 100	< 100	C[C@H](c1ccc(F)cn1)n1c(=O)[nH]c2cnc(-c3cnn4ccncc34)nc21 [Example 79, (R)-9-(1-(5-Fluoropyridin-2-yl)ethyl)-2-(pyrazolo[1,5-a]pyrazin-3-yl)-7H-purin-8(9H)-one]
100 to 1000	100 to 1000	100 to 1000	O=c1[nH]c2cnc(-c3cnn4ccncc34)nc2n1CC1CCOCC1 [Example 80, 2-(Pyrazolo[1,5-a]pyrazin-3-yl)-9-((tetrahydro-2H-pyran-4-yl)methyl)-7H-purin-8(9H)-one]
< 100	< 100	100 to 1000	O=c1[nH]c2cc(F)c(-c3cnc4ccc(F)cn34)nc2n1C1CCOCC1 [Example 73, 6-Fluoro-5-(6-fluoroimidazo[1,2-a]pyridin-3-yl)-3-(tetrahydro-2H-pyran-4-yl)-1,3-dihydro-2H-imidazo[4,5-b]pyridin-2-one]
